Measured values from ChEMBL document CHEMBL3507680, “University of Dundee, Gates Library screen for HepG2 cell viability”.

Assay: Human HepG2 cell viability assay in 384 well format
Type: toxicity, cell-based
Design: dose 125 nL, time 70.5 hour; cytotoxicity at 70.5 h: concentration not given beside the values
Details: HepG2 cells, read-out: Inhibition

SMILES | cytotoxicity at 70.5 h [%]
Cc1nccc(C(=O)N2CCOC(c3nc(C(C)C)n[nH]3)C2)n1 (stereo not drawn) | -5.71
COc1c(C2CCCN2C(=O)c2ccc3[nH]cnc3c2)c(C)nn1C (stereo not drawn) | -0.572
Cc1noc(C)c1C(=O)N1CCCN(Cc2cscn2)CC1 | -2.11
COc1c(C2CCCN2C(=O)c2ccnc(C)n2)c(C)nn1C (stereo not drawn) | -12.9
C1CC(NCc2nnc(C3CC3)o2)CN(Cc2noc(C3CC3)n2)C1 (stereo not drawn) | -7.51
COCc1cccc(CNCc2c(C)nn(C)c2N2CCOCC2)c1 | -12.5
CCOC(C)C(=O)NCc1ccc(N(C)C)cc1 (stereo not drawn) | -10.8
Cc1oc(C)c(C(=O)N2CCN(Cc3cscn3)CC2)c1C | -7.99
O=C(CCc1ccccn1)N1CCCC1 | -3.29
Cc1cnc(C(=O)NCc2ccnc(N(C)C)c2)cn1 | -2.67
O=C(NCCC(=O)N1CCCc2ccccc21)c1cc(F)cc(F)c1 | -7.42
Cc1occc1C(=O)N1CCCC(c2nncn2C)C1 (stereo not drawn) | -6.07
Cn1cnnc1C1CCCN(C(=O)c2cc(Cl)c(Cl)n2C)C1 (stereo not drawn) | -8.15
Cc1nn(C)c(N2CCOCC2)c1CNCc1ccc(CO)c(F)c1 | -0.89
O=C(Cc1ccccn1)N1CCN(C(=O)CC2CCCC2)CC1 | -1.56
Cc1ccc(N2CCCN(C(=O)CCc3nccs3)CC2)nn1 | -8.06
CCCc1noc(CNC2CCCN(Cc3noc(C4CC4)n3)C2)n1 (stereo not drawn) | -3.33
CCNc1cc2c(nn1)CCN(C(=O)c1ccoc1)C2 | -11.9
O=C(CCc1nccs1)N1CCN(c2ccccn2)CC1 | 8.13
CCc1n[nH]c(C2CN(Cc3nc(C4CC4)no3)CCO2)n1 (stereo not drawn) | -3.3
COc1c(C)cnc(CN(C)C(=O)c2cccnc2N(C)C)c1C | -0.657
O=C(COc1ccc2c(c1)CCC2)N1CCCC(n2cccn2)C1 (stereo not drawn) | 15.3
O=C(COCCc1ccccc1)N1CCCC(n2cccn2)C1 (stereo not drawn) | -6.79
O=C(c1cccc2c1OCO2)N1CCCCC1Cn1cccn1 (stereo not drawn) | -10.8

SMILES | cytotoxicity at 70.5 h [%]
Cc1nc2n(n1)CC(NCc1nc(-c3cccnc3)no1)CC2 (stereo not drawn) | -7.76
CCOc1ncccc1C(=O)N1CCCC(n2nc(C)nc2C)C1 (stereo not drawn) | -11.7
O=C(CCNC(=O)c1ccoc1)Nc1ccccc1F | -8.3
O=C(CCNC(=O)c1ccoc1)Nc1ccc(F)cc1F | -10.2
COc1ccc(C2CCCN2C(=O)Nc2ccc(OC)nc2)cc1 (stereo not drawn) | -7.84
COCCOc1ccc(NC(=O)N2CCCC2c2ccsc2)cn1 (stereo not drawn) | -5.25
COc1c(C)cnc(CN(C)C(=O)c2ccccn2)c1C | 15.4
COc1c(C)cnc(CN(C)C(=O)c2ccccc2O)c1C | 0.1
CC(NC(=O)NCCCOc1ccccc1F)c1nncn1C (stereo not drawn) | -7.39
Cc1nn(C)c(C)c1NC(=O)CN1CCOC(Cn2cccn2)C1 (stereo not drawn) | -1.52
Cc1cnn(C2CCCN(C(=O)COc3ccc(C(N)=O)cc3)C2)c1 (stereo not drawn) | -9.97
O=C(c1ccccc1N1CCOCC1)N1CCCC1Cn1cccn1 (stereo not drawn) | -4.2
CCc1nccn1C1CCCN(C(=O)c2cnc3onc(C)c3c2)C1 (stereo not drawn) | -2.35
NC(=O)c1cccc(OCC(=O)N2CCCC(n3cccn3)C2)c1 (stereo not drawn) | 3.84
Cc1cc(C)n(C2CCCN(C(=O)c3c[nH]c(=O)c(Cl)c3)C2)n1 (stereo not drawn) | -8.77
Cc1nc(C)n(C2CCCN(C(=O)c3cccnc3NC(C)C)C2)n1 (stereo not drawn) | -9.03
Cc1nc(C)n(C2CCCN(C(=O)c3cccc4[nH]ncc34)C2)n1 (stereo not drawn) | -6.19
CCCc1n[nH]c(C2CN(Cc3nnc(C4CC4)n3C)CCO2)n1 (stereo not drawn) | -5.29
Cc1oc(-c2ccco2)nc1CC(=O)N1CCN(CC(C)O)CC1 (stereo not drawn) | 11.6
CC(C)c1nc(CN2CCCC(O)C2)cs1 (stereo not drawn) | 13.1
CNC(=O)CN1CCCC(Cc2ccccc2OC)C1 (stereo not drawn) | 5.69
Cc1oc(-c2ccco2)nc1CC(=O)N1CCC(CCO)C1 (stereo not drawn) | -11
CCn1ncc2c1CCCC2NCc1ccc(C)s1 (stereo not drawn) | -4.74
Cc1c(Cl)c(CN2CCCC2Cn2cncn2)nc2ccccc12 (stereo not drawn) | -6.2

SMILES | cytotoxicity at 70.5 h [%]
CC(C)c1nccn1C1CCCN(C(=O)c2ccc3c(c2)COC3)C1 (stereo not drawn) | -8.53
COc1ccc(Cl)cc1CS(=O)(=O)CC(=O)N(C)Cc1ccccc1F | -12.1
Cc1csc(CNC(=O)N(C)Cc2ccc3c(c2)OCCO3)n1 | -10.6
CCN(Cc1ccc2c(c1)OCO2)C(=O)NCc1nc(C)cs1 | -9.62
CCN(Cc1ccc2c(c1)OCCO2)C(=O)NCc1csc(C)n1 | -9.9
CCOc1ccc(CC(CNC(=O)c2ccco2)C(N)=O)cc1 (stereo not drawn) | -6.1
COc1ccccc1CC1CCCN(CC(=O)NC2CC2)C1 (stereo not drawn) | -8.21
CNC(=O)NC(=O)CN1CCCC(Cc2ccccc2OC)C1 (stereo not drawn) | -6.62
CC(C)c1nnc2n1CCN(C(=O)c1ccc(OCC3CC3)cc1)C2 | -6.55
Cc1cc(NC(=O)CN2CCn3c(nnc3C(C)C)C2)on1 | -0.984
CC(C)c1nnc2n1CCN(C(=O)c1ccc(S(C)(=O)=O)cc1)C2 | -5.36
Cn1cnnc1C1CCCN(C(=O)c2n[nH]c3ccccc23)C1 (stereo not drawn) | 4.38
CC(CNC(=O)Nc1cn[nH]c1)N1CCc2ccccc2C1 (stereo not drawn) | -7.18
CCn1cnnc1CNC(=O)N1CCCN(C(C)=O)CC1 | -11.8
CS(=O)(=O)NC1CCCN(C(=O)NCc2cc[nH]n2)C1 (stereo not drawn) | 10.8
O=C(CCc1nccs1)N1CCN(c2cccnn2)CC1 | -3.92
O=C(CCc1nccs1)N1CCN(c2ccc(Br)cn2)CC1 | 22.4
Cc1cn2c(n1)CCC(NC(=O)c1cnc(C)nc1C(C)C)C2 (stereo not drawn) | -9
CCc1nc(C2CCCN(C(=O)CN(C)S(C)(=O)=O)C2)no1 (stereo not drawn) | 3.45
Cc1n[nH]c(C2CN(C(=O)c3ccnc(C4CC4)n3)CCO2)n1 (stereo not drawn) | -10.4
CCNC(=O)N1CCCC(c2noc(CC)n2)C1 (stereo not drawn) | -3.02
O=C(NCCC(=O)N1CCCc2ccccc21)c1c(O)cc(F)cc1F | -9.76
O=C(NCCC(=O)N1CCCCCC1)c1c(O)cc(F)cc1F | 9.05
Cc1cc(CN2Cc3ccccc3CC2c2nnc(C)o2)on1 (stereo not drawn) | -6.94

SMILES | cytotoxicity at 70.5 h [%]
Cc1cnn(CC2CCCN2C(=O)CCc2ccsc2)c1 (stereo not drawn) | -5.3
c1ccc(CCN2CCOC(Cn3cccn3)C2)nc1 (stereo not drawn) | -4.02
Cc1nc(C)n(CC2CCCN(CCC(=O)N3CCCCC3)C2)n1 (stereo not drawn) | -1.55
CCn1cnnc1CNC(=O)N1CCC(Cc2cccnc2)CC1 | 34.8
CCn1cc(CN2CCCN(C(=O)C3=NN(C)C(=O)CC3)CC2)cn1 | 17.3
Cc1nc(CN2CCCCC2Cn2cncn2)nc2ccccc12 (stereo not drawn) | 20.9
Cc1nc(CN(C)C2CCN(Cc3ccno3)C2)no1 (stereo not drawn) | 29.4
O=C(CCNC(=O)c1ccoc1)NCc1ccccc1F | -11
Cn1cnnc1C1CCCN(C(=O)c2ccc3c(c2)OCCCO3)C1 (stereo not drawn) | -2.02
COCCOCc1cccc(NC(=O)N2CCCC2c2ccncc2)c1 (stereo not drawn) | 1.97
Cn1cnnc1C1CCCN(C(=O)NCc2ccc3c(c2)OCO3)C1 (stereo not drawn) | -0.469
c1cc(CN2CCN(Cc3cscn3)CC2)cs1 | -6.89
CCc1noc(C)c1C(=O)N(C)Cc1ncc(C)c(OC)c1C | -30.2
O=C(CCc1ccccn1)N1CCN(C(=O)CC2CCCCC2)CC1 | -4.45
Cc1nc(C)n(CC2CCCN2Cc2cc(C)on2)n1 (stereo not drawn) | -1.6
O=C1COc2c(cccc2C(=O)N2CCCCC2Cn2cccn2)N1 (stereo not drawn) | -4.26
O=C(CC1CCCCC1)N1CCN(C(=O)NCc2ccccn2)CC1 | -9.56
CC(NC(=O)NCCOc1ccc(F)c(F)c1)c1nncn1C (stereo not drawn) | -0.895
Cc1cc(C)n(CC2CCCCN2Cc2cscn2)n1 (stereo not drawn) | -13.4
CNc1cc2c(nn1)CCN(C(=O)c1cc(F)cc(F)c1)C2 | -10
CNc1cc2c(nn1)CCN(C(=O)c1ccc(-n3nccc3C)cc1)C2 | -5.27
Cc1nc(C)n(CC2CCCN2Cc2cscn2)n1 (stereo not drawn) | -9.32
CN1CCN(C(=O)CC2CCN(CCc3ccccn3)CC2)CC1 | -0.784
Cc1nc(CN2CCCC(N(C)Cc3c(C)noc3C)C2)no1 (stereo not drawn) | 10.6

SMILES | cytotoxicity at 70.5 h [%]
CC(C)c1nc2n(n1)CC(NCc1nc(-c3cccnc3)no1)CC2 (stereo not drawn) | 21.9
CC(C)c1nccn1C1CCCN(C(=O)c2ccc3c(c2)OCO3)C1 (stereo not drawn) | -12.1
Cc1n[nH]c(C)c1NC(=O)CN1CCn2c(nnc2C(C)C)C1 | -7.95
CN(Cc1nnc(-c2ccco2)o1)CC1CCCN1c1cccnn1 (stereo not drawn) | 5.51
Cc1cc(CN(C)C(=O)C2CCS(=O)(=O)C2)no1 (stereo not drawn) | 2.42
CC(=O)Nc1nc(C(=O)NC(C)c2ccc3c(c2)OCCO3)cs1 (stereo not drawn) | -11.4
Cc1csc(CNC(=O)NCCc2ccc3c(c2)OCCO3)n1 | 20.8
Cc1noc(C2CCCN(C(=O)c3ccc(Br)o3)C2)n1 (stereo not drawn) | 19.7
CCCNC(=O)NC(=O)CN(CC(C)O)c1ccccc1 (stereo not drawn) | -3.55
CC(O)CN(CC(=O)NC(=O)NC1CC1)c1ccccc1 (stereo not drawn) | -11
O=C(Cc1ccc(-n2cccn2)cc1)N1CCCC(n2cccn2)C1 (stereo not drawn) | 17.4
Cc1cnn(C2CCCN(C(=O)c3ccn(C)c(=O)c3)C2)c1 (stereo not drawn) | -11.3
COc1ccccc1CC1CCCN(CCC#N)C1 (stereo not drawn) | -13.9
CCOc1ccccc1-c1noc(CN2CC(n3cccn3)C2)n1 | -14.4
O=C(Cc1ccc2c(c1)OCCO2)N1CCCC(n2ccnc2)C1 (stereo not drawn) | 18.8
CCn1nc(C(=O)N2CCCC(n3cncn3)C2)ccc1=O (stereo not drawn) | -14.8
CCOc1ccccc1-c1noc(CN2CCCC(O)C2)n1 (stereo not drawn) | -11.1
CN(Cc1ccsc1)C(=O)CN1CCCC1Cn1cccn1 (stereo not drawn) | -13.8
CCc1nc(C2CCCN2Cc2nc3ccccc3o2)no1 (stereo not drawn) | -17.9
CCc1nc(C2CCCN2Cc2nnc(Cc3ccccc3)o2)no1 (stereo not drawn) | -10.8
CN(Cc1ccco1)C(=O)CN1CCCCC1Cn1cccn1 (stereo not drawn) | -12.4
Cn1cc(-c2nc(CNCCn3cccn3)cs2)cn1 | 12.5
